Here are results for 17 compounds from ChEMBL document CHEMBL5042532, “Discovery of N-(4-(Benzyloxy)-phenyl)-sulfonamide Derivatives as Novel Antagonists of the Human Androgen Receptor Targeting the Activation Function 2” (J Med Chem, 2022).

The target in one data set is T1, Androgen receptor (Homo sapiens, UniProt P10275).
T1 sequence (P10275 whole entry): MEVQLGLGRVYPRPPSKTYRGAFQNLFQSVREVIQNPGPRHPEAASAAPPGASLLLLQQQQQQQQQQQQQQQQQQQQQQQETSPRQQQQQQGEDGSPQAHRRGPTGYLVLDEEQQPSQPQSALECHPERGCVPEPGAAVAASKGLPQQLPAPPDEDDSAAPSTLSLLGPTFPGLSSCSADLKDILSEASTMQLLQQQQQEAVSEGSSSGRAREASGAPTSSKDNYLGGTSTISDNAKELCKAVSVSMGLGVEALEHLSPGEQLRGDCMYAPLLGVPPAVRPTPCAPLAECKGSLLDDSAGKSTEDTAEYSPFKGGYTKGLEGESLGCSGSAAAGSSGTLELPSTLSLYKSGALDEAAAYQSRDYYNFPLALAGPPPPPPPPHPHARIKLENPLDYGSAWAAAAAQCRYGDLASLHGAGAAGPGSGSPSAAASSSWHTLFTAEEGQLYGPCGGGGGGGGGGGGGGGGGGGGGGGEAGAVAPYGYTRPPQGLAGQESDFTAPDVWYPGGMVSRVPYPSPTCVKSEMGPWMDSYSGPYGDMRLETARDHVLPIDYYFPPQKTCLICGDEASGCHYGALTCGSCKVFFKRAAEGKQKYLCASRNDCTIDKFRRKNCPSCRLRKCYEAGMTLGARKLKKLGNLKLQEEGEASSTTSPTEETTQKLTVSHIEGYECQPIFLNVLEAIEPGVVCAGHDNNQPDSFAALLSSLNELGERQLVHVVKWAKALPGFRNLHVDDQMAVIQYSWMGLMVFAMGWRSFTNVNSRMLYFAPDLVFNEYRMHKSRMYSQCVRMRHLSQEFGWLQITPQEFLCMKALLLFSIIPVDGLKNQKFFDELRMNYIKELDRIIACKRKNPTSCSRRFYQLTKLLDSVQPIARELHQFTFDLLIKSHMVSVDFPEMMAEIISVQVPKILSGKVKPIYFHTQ
Briefly: Antagonist activity against human androgen receptor expressed in human LNCap cells trasfected with ARR2PB-eGFP cells incubated for 3 days by fluorescence based AR transcription assay. The format is cell-based.

In the next data set the test system is NIH3T3. Briefly: Cytotoxicity against mouse NIH3T3 cells assessed as reduction in cell viability at 100 uM incubated for 4 hrs by MTT assay. The class given is toxicity, cell-based. The settings on record: nih3t3, 4 h.
A short description of data set [1]: Clearance in CB17-SCID mouse mouse at 50 mg/kg, iv. The format is ADME, organism-based. The settings on record: in vivo.
The nature of data set [2]: Toxicity in CB17 SCID mouse xenografted with human LNCaP cells assessed as decrease in body weight at 2.5 mg/kg,IT(Intratumoral) administered once in every week for 25 days […]. The format is organism-based. The settings on record: in vivo, other, 600 h, time 25 day.
The nature of data set [3]: Cmax in CB17-SCID mouse mouse at 50 mg/kg, iv. The format is ADME, organism-based. Also on record: route intravenous, dose 50 mg/kg. As to conditions: in vivo.
Data set [4] in a line: Volume of distribution in CB17-SCID mouse mouse at 50 mg/kg, iv. The class given is ADME, organism-based. The settings on record: in vivo.
Data set [5] can be described thus: Half life in CB17-SCID mouse mouse at 50 mg/kg, iv. The format is ADME, organism-based. The settings on record: in vivo.
The nature of data set [6]: Inhibition of prostate specific antigen expression in human LNCaP cells expressing ARR2PB-eGFP by immunoassay.

With `O=S(=O)(Cc1ccc(Cl)cc1)Nc1ccc(OCc2ccccc2)cc1`, on Androgen receptor, the IC50 was above 50 µM.

Take `CN(C)S(=O)(=O)Nc1ccc(OCc2ccccc2)cc1`: the Activity entry in the data set on NIH3T3 is recorded as “Non-Toxic”; in data set [2], “Toxic”. The compound also gave a clearance in data set [1] of 366 mL/min/kg. Further, in data set [3], the maximum concentration (Cmax) stood at 890 ng/mL. Besides, in data set [4], the Vd was determined as 2.99 L/kg. Moreover, the half-life in data set [5] was 1.52 h.

At Androgen receptor, `COC(=O)c1sccc1S(=O)(=O)Nc1ccc(OCc2ccccc2)cc1` displayed an IC50 above 50 µM.

Regarding `CC(C)CS(=O)(=O)Nc1ccc(OCc2ccccc2)cc1`, the IC50 against Androgen receptor is above 50 µM.

For the compound `Cc1cc(C)c(S(=O)(=O)Nc2ccc(OCc3ccccc3)cc2)c(C)c1`, the IC50 against Androgen receptor is above 50 µM.

With `Cn1c(=O)n(C)c2cc(S(=O)(=O)Nc3ccc(OCc4ccccc4)cc3)ccc21`, on Androgen receptor, the IC50 was above 50 µM.

In the case of `O=S(=O)(Cc1ccccc1)Nc1ccc(OCc2ccccc2)cc1`, the Activity entry with NIH3T3 is reported as “Non-Toxic”.

`CC1NC(=O)NC(=O)C1S(=O)(=O)Nc1ccc(OCc2ccccc2)cc1` (stereo not drawn) displayed an IC50 against Androgen receptor above 50 µM.

Take `CCOC(=O)c1cn[nH]c1S(=O)(=O)Nc1ccc(OCc2ccccc2)cc1`: on Androgen receptor, the IC50 is above 50 µM.

Take `CC(=O)c1ccc(S(=O)(=O)Nc2ccc(OCc3ccccc3)cc2)cc1`: the IC50 on Androgen receptor was above 50 µM.

The compound `Cc1ccc(S(=O)(=O)Nc2ccc(OCc3ccccc3)cc2)cc1` had an IC50 on Androgen receptor of 11.5 µM.

On to `O=[N+]([O-])c1ccc(CS(=O)(=O)Nc2ccc(OCc3ccccc3)cc2)cc1`, for which the IC50 against Androgen receptor is above 50 µM.

In turn, `COc1ccc(CS(=O)(=O)Nc2ccc(OCc3ccccc3)cc2)cc1` displayed an IC50 on Androgen receptor above 50 µM.

In turn, `CC(=O)Nc1ccc(S(=O)(=O)Nc2ccc(OCc3ccccc3)cc2)cc1` gave an IC50 against Androgen receptor above 50 µM.

On to `O=S(=O)(Nc1ccc(OCc2ccccc2)cc1)c1ccccc1`, for which, in the data set on NIH3T3, the Activity entry is listed as “Toxic”.

As to `CC(=O)N1c2cc(S(=O)(=O)Nc3ccc(OCc4ccccc4)cc3)c(Br)cc2CC1C` (stereo not drawn), the IC50 against Androgen receptor is above 50 µM.

In turn, `CNC(=O)c1ccc(N2C(=S)N(c3ccc(C#N)c(C(F)(F)F)c3)C(=O)C2(C)C)cc1F` [ENZALUTAMIDE] showed an IC50 in data set [6] of 0.1 µM. Further, the Activity result in data set [2] is on record as “Toxic”.

What is called IC50 is the concentration that inhibits the measured activity by half. Read a low IC50 as higher potency. A word on the clearance: it is the volume of plasma or blood freed of the substance per unit of time. Higher therefore signals efficient removal. As a reminder, the Cmax is the peak of the concentration-time curve. Broadly, the Vd is a proportionality between amount in the body and measured concentration, not a real space. Low values mean confinement near the circulation, high ones extensive tissue distribution. One may read the half-life as the time needed for the level to fall by half in the phase considered. A higher half-life goes with slow loss.
